Measurements: ChEMBL document CHEMBL1149726, “New Pentacyclic Compounds from the Okinawan Marine Sponge Xestospongia sapra” (J Nat Prod, 1992)
Converted amounts (≈) assume the structure as drawn.

Columns and labels:
KB [1] = test: Cytotoxicity against human KB cells at 10 ug/ml; assay type: functional
L1210 [2] = test: Cytotoxicity against mouse L1210 cells at 10 ug/ml; assay type: functional
[3] = molecular target: T1, DNA topoisomerase 1 (Homo sapiens) (UniProt P11387); test: Inhibition of DNA topoisomerase 1
T1 sequence (whole entry): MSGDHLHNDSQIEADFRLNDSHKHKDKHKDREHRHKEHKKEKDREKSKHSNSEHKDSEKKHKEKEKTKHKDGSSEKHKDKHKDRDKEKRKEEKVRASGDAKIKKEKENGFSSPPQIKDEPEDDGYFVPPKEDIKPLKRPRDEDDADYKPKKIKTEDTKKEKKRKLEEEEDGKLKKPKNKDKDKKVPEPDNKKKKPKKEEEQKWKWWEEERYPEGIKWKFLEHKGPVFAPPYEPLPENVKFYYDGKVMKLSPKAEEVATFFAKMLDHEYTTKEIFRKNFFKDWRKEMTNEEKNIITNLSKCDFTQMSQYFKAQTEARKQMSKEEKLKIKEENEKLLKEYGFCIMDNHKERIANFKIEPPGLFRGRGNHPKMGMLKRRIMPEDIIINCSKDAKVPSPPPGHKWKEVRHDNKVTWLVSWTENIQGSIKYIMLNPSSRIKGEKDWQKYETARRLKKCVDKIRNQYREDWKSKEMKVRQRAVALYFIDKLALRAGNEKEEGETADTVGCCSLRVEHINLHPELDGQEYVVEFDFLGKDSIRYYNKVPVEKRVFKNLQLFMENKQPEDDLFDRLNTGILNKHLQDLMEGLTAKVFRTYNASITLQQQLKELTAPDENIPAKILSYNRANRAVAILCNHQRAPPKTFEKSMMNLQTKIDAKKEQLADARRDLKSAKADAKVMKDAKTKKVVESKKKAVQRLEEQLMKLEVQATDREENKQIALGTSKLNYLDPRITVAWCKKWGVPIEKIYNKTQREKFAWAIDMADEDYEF

KB [4] = test: Cytotoxicity against human KB cells; assay type: functional, cell-based
L1210 [5] = test: Cytotoxicity against mouse L1210 cells; assay type: functional, cell-based

| MIC [3] [µg/mL] | Compound | Activity (KB [1]) [%] | Activity (L1210 [2]) [%] | IC50 (KB [4]) [µg/mL] | IC50 (L1210 [5]) [µg/mL] |
| --- | --- | --- | --- | --- | --- |
| > 50 | C[C@@]12CCC(=O)c3coc(c31)C(=O)c1cc3c(O)ccc(OS(=O)(=O)[O-])c3cc12.[Na+] [HALENAQUINOL SULFATE SODIUM] | 12.2 | 22.4 | – | – |
| 10 | C[C@@]12CCCc3coc(c31)C(=O)c1cc3c(O)ccc(OS(=O)(=O)[O-])c3cc12.[Na+] [XESTOQUINOL SULFATE SODIUM] | – | 25.4 | – | – |

The remaining lines, values behind:

| Compound | MIC [3] [µg/mL] | Activity (KB [1]) [%] | Activity (L1210 [2]) [%] | IC50 (KB [4]) [µg/mL] | IC50 (L1210 [5]) [µg/mL] |
| --- | --- | --- | --- | --- | --- |
| C[C@@]12CC[C@H](O)[C@@H]3COC(=C31)C(=O)c1cc3c(cc12)C(=O)CCC3O (some centres not stated) | 2.5 (≈ 7.34 µM) | 9.8 | 14.5 | – | – |
| C[C@@]12CCC(=O)c3coc(c31)C(=O)c1cc3c(cc12)C(=O)C=CC3=O [HELENAQUINONE] | 0.4 (≈ 1.2 µM) | – | – | 3.1 (≈ 9.33 µM) | 1.6 (≈ 4.81 µM) |
| C[C@@]12CCCc3coc(c31)C(=O)c1cc3c(cc12)C(=O)C=CC3=O [XESTOQUINONE] | 2 (≈ 6.28 µM) | – | – | 1.7 (≈ 5.34 µM) | 0.17 (≈ 0.534 µM) |
| C[C@@]12CC[C@H](O)[C@@H]3COC(=C31)C(=O)c1cc3c(cc12)C(O)CCC3=O (some centres not stated) [XESTOSAPROL A] | 12.5 (≈ 36.7 µM) | 30.1 | 34.9 | – | – |
